Consider 4 molecules from BindingDB's records for doi:10.1021/jm00145a012 (1985).

Structures are written as SMILES.

Dihydrofolate reductase (Bos taurus), sequence (P00376 whole entry, looked up): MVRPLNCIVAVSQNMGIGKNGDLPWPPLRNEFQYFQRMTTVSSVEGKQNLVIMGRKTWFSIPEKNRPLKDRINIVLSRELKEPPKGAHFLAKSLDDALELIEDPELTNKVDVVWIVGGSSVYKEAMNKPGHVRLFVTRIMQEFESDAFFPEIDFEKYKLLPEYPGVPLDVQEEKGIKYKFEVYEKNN

The assay concerns the target Dihydrofolate reductase (Bos taurus) (UniProt P00376). As to the kind of experiment: In vitro inhibitory concentration against beef liver dihydrofolate reductase.
For orientation: IC50 means the midpoint of a concentration-inhibition curve. On to `Nc1nc(N)c2cc(CCc3ccc(C(=O)NC(CCC(=O)O)C(=O)O)cc3)cnc2n1` (centres undefined) [2-{4-[2-(2,4-Diamino-pyrido[2,3-d]pyrimidin-6-yl)-ethyl]-benzoylamino}-pentanedioic acid], for which the IC50 was found to be 0.043 µM.
On to `Nc1nc(N)c2c(n1)NCC(CCc1ccc(C(=O)NC(CCC(=O)O)C(=O)O)cc1)C2` (centres undefined) [2-{4-[2-(2,4-Diamino-5,6,7,8-tetrahydro-pyrido[2,3-d]pyrimidin-6-yl)-ethyl]-benzoylamino}-pentanedioic acid], for which the IC50 worked out at 0.071 µM. This IC50 is about 1.7-fold higher than that of the molecule before.
The same measure for `Nc1nc2ncc(CCc3ccc(C(=O)N[C@@H](CCC(=O)O)C(=O)O)cc3)cc2c(=O)[nH]1`: 49 µM.
Then `Nc1nc2c(c(=O)[nH]1)CC(CCc1ccc(C(=O)NC(CCC(=O)O)C(=O)O)cc1)CN2` (centres undefined) [(DDATHF) 5,10-Dideazatetrahydrofolic acid2-{4-[2-(2-Amino-4-oxo-3,4,5,6,7,8-hexahydro-pyrido[2,3-d]pyrimidin-6-yl)-ethyl]-benzoylamino}-pentanedioic acid], with 560 µM.
